Test results: patent publication US12172983B2, “EGFR inhibitors” (Blueprint Medicines Corporation, priority 2019, dated 2024)
Like-named read-outs stand apart in the source and are kept apart here.

Columns and labels:
[1] = biological target: T1, EGFR (L858R T790M C797S) (Homo sapiens, UniProt P00533, C797S/L858R/T790M); experiment: Biochemical EGFR inhibition assay (Caliper mobility shift), EGFR LRTMCS mutant; details: inhibitory activity against EGFR LRTMCS mutant; apparent IC50; read-out: Ext Enz LRTMCS
T1 construct: purchased SignalChem E10-122VG
T1 sequence (P00533 25-1210 T790M/C797S/L858R): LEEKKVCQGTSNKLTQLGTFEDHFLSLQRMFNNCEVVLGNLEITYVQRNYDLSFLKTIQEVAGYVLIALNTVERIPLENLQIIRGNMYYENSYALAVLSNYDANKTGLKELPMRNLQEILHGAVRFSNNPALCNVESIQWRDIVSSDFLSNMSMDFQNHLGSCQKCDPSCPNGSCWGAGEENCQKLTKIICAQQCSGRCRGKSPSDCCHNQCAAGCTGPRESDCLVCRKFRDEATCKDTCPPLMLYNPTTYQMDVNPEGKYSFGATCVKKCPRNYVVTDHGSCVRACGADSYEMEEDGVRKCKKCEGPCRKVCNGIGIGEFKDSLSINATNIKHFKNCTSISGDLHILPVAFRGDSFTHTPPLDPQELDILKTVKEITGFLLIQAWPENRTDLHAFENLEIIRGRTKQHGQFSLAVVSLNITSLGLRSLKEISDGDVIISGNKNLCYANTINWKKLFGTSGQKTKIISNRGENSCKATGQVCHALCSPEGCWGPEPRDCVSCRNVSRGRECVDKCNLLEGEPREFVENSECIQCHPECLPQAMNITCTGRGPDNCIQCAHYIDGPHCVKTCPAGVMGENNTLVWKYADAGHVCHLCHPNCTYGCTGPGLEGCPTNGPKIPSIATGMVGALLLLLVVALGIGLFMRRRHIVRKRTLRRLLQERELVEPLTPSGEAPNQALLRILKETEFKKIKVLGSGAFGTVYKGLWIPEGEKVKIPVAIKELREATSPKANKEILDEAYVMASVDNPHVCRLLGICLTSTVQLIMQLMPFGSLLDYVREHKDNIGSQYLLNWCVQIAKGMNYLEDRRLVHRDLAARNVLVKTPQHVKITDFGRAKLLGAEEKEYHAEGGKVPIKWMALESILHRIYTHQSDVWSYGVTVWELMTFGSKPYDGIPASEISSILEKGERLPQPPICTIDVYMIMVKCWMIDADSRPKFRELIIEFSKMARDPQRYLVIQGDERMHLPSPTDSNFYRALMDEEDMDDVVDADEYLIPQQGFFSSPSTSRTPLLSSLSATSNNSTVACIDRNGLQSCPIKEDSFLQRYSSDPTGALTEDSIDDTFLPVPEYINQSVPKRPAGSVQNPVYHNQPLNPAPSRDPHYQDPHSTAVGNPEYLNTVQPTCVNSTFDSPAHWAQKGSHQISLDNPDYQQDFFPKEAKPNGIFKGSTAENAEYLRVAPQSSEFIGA
Summary of the method: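 Kinase reactions at 25 °C run to 10–20% peptide phosphorylation, stopped with 35 mM EDTA. Phosphorylated product and substrate separated electrophoretically by mobility shift. Apparent IC50 from percent activity versus log compound concentration.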

[2] = tested on: phosphorylation of EGFR (Tyr1068) in NCI-H1975 cell line that harbors the EGFR L858R T790M mutations; experiment: NCI-H1975 pEGFR AlphaLISA assay; type: cell-based; details: 4-5 hours incubation, read-out: Ext pEGFR H1975
Summary of the method: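 NCI-H1975 cells (EGFR L858R/T790M) seeded overnight, then treated with compound for 4-5 h at 37 °C/5% CO2. After lysis, p-EGFR (Tyr1068) quantified by AlphaLISA SureFire Ultra with acceptor then donor beads; IC50 fitted from percent inhibition versus log concentration.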

[3] = Homo sapiens, NCI-H1975, inhibition of phosphorylation of mutant EGFR in NCI-H1975 cells
[4] = inhibition of phosphorylation of mutant EGFR in NCI-H1975 cells

Structure (SMILES) | IC50 [1] [nM] | IC50 [2, 3] [nM] | IC50 [2, 4] [nM]
CN[C@H]1CCN(c2nccc(Nc3cc4c(C(C)C)ccc(N5C[C@H](CS(C)(=O)=O)[C@H]5C)c4cn3)n2)C[C@H]1F (single isomer, unassigned) [Compound 306, N-{2-[(3R,4S)-3-fluoro-4-(methylamino)piperidin-1-yl]pyrimidin-4-yl}-8-[(2R,3S)-3-(methanesulfonylmethyl)-2-methylazetidin-1-yl]-5-(propan-2-yl)isoquinolin-3-amine or N-{2-[(3S,4R)-3-fluoro-4-(methylamino)piperidin-1-yl]pyrimidin-4-yl}-8-[(2R,3S)-3-(methanesulfonylmethyl)-2-methylazetidin-1-yl]-5-(propan-2-yl)isoquinolin-3-amine] | 20.1 to 30 | 20.1 to 30 | –
CN[C@H]1CCN(c2nccc(Nc3cc4c(C(C)C)ccc(N5C[C@H](CS(C)(=O)=O)[C@H]5C)c4cn3)n2)C[C@H]1F (single isomer, unassigned) [Compound 307, N-{2-[(3S,4R)-3-fluoro-4-(methylamino)piperidin-1-yl]pyrimidin-4-yl}-8-[(2R,3S)-3-(methanesulfonylmethyl)-2-methylazetidin-1-yl]-5-(propan-2-yl)isoquinolin-3-amine or N-{2-[(3R,4S)-3-fluoro-4-(methylamino)piperidin-1-yl]pyrimidin-4-yl}-8-[(2R,3S)-3-(methanesulfonylmethyl)-2-methylazetidin-1-yl]-5-(propan-2-yl)isoquinolin-3-amine] | 20.1 to 30 | – | 10.1 to 20
CO[C@H]1CN(c2nccc(Nc3cc4c(C(C)C)cnc(N5C[C@H](CS(C)(=O)=O)[C@H]5C)c4cn3)n2)C[C@@H](F)[C@H]1O (single isomer, unassigned) [Compound 308, (3R,4S,5S)-3-fluoro-1-[4-({8-[(2R,3S)-3-(methanesulfonylmethyl)-2-methylazetidin-1-yl]-5-(propan-2-yl)-2,7-naphthyridin-3-yl}amino)pyrimidin-2-yl]-5-methoxypiperidin-4-ol or (3S,4R,5R)-3-fluoro-1-[4-({8-[(2R,3S)-3-(methanesulfonylmethyl)-2-methylazetidin-1-yl]-5-(propan-2-yl)-2,7-naphthyridin-3-yl}amino)pyrimidin-2-yl]-5-methoxypiperidin-4-ol] | ≤ 15 | 10.1 to 20 | –
CN[C@H]1CCN(c2nccc(Nc3cc4c(C(C)C)ccc(N5C[C@H](CS(C)(=O)=O)[C@H]5C)c4cn3)n2)CC1(F)F (single isomer, unassigned) [Compound 309, N-{2-[(4S)-3,3-difluoro-4-(methylamino)piperidin-1-yl]pyrimidin-4-yl}-8-[(2R,3S)-3-(methanesulfonylmethyl)-2-methylazetidin-1-yl]-5-(propan-2-yl)isoquinolin-3-amine or N-{2-[(4R)-3,3-difluoro-4-(methylamino)piperidin-1-yl]pyrimidin-4-yl}-8-[(2R,3S)-3-(methanesulfonylmethyl)-2-methylazetidin-1-yl]-5-(propan-2-yl)isoquinolin-3-amine] | 15.1 to 20 | ≤ 10 | –

Second part, the compound after the results:

IC50 [1] [nM] | IC50 [2, 3] [nM] | IC50 [2, 4] [nM] | Structure (SMILES)
15.1 to 20 | ≤ 10 | – | CCS(=O)(=O)C[C@H]1CN(c2ccc(C(C)C)c3cc(Nc4ccnc(N5CC[C@@H](OCCO)C(F)(F)C5)n4)ncc23)[C@@H]1C (single isomer, unassigned) [Compound 302, 2-{[(4R)-1-[4-({8-[(2R,3S)-3-[(ethanesulfonyl)methyl]-2-methylazetidin-1-yl]-5-(propan-2-yl)isoquinolin-3-yl}amino)pyrimidin-2-yl]-3,3-difluoropiperidin-4-yl]oxy}ethan-1-ol or 2-{[(4S)-1-[4-({8-[(2R,3S)-3-[(ethanesulfonyl)methyl]-2-methylazetidin-1-yl]-5-(propan-2-yl)isoquinolin-3-yl}amino)pyrimidin-2-yl]-3,3-difluoropiperidin-4-yl]oxy}ethan-1-ol]
15.1 to 20 | – | ≤ 10 | CCS(=O)(=O)C[C@H]1CN(c2ccc(C(C)C)c3cc(Nc4ccnc(N5CC[C@@H](OCCO)C(F)(F)C5)n4)ncc23)[C@@H]1C (single isomer, unassigned) [Compound 303, 2-{[(4S)-1-[4-({8-[(2R,3S)-3-[(ethanesulfonyl)methyl]-2-methylazetidin-1-yl]-5-(propan-2-yl)isoquinolin-3-yl}amino)pyrimidin-2-yl]-3,3-difluoropiperidin-4-yl]oxy}ethan-1-ol or 2-{[(4R)-1-[4-({8-[(2R,3S)-3-[(ethanesulfonyl)methyl]-2-methylazetidin-1-yl]-5-(propan-2-yl)isoquinolin-3-yl}amino)pyrimidin-2-yl]-3,3-difluoropiperidin-4-yl]oxy}ethan-1-ol]
≤ 15 | ≤ 10 | – | CC(C)c1ccc(N2C[C@H](CS(C)(=O)=O)[C@H]2C)c2cnc(Nc3ccnc(N4CC[C@@H](OCCN(C)C)C(F)(F)C4)n3)cc12 (single isomer, unassigned) [Compound 304, N-{2-[(4R)-4-[2-(dimethylamino)ethoxy]-3,3-difluoropiperidin-1-yl]pyrimidin-4-yl}-8-[(2R,3S)-3-(methanesulfonylmethyl)-2-methylazetidin-1-yl]-5-(propan-2-yl)isoquinolin-3-amine or N-{2-[(4S)-4-[2-(dimethylamino)ethoxy]-3,3-difluoropiperidin-1-yl]pyrimidin-4-yl}-8-[(2R,3S)-3-(methanesulfonylmethyl)-2-methylazetidin-1-yl]-5-(propan-2-yl)isoquinolin-3-amine]
≤ 15 | – | ≤ 10 | CC(C)c1ccc(N2C[C@H](CS(C)(=O)=O)[C@H]2C)c2cnc(Nc3ccnc(N4CC[C@@H](OCCN(C)C)C(F)(F)C4)n3)cc12 (single isomer, unassigned) [Compound 305, N-{2-[(4S)-4-[2-(dimethylamino)ethoxy]-3,3-difluoropiperidin-1-yl]pyrimidin-4-yl}-8-[(2R,3S)-3-(methanesulfonylmethyl)-2-methylazetidin-1-yl]-5-(propan-2-yl)isoquinolin-3-amine or N-{2-[(4R)-4-[2-(dimethylamino)ethoxy]-3,3-difluoropiperidin-1-yl]pyrimidin-4-yl}-8-[(2R,3S)-3-(methanesulfonylmethyl)-2-methylazetidin-1-yl]-5-(propan-2-yl)isoquinolin-3-amine]
≤ 15 | – | ≤ 10 | CN[C@H]1CCN(c2nccc(Nc3cc4c(C(C)C)ccc(N5C[C@H](CS(C)(=O)=O)[C@H]5C)c4cn3)n2)CC1(F)F (single isomer, unassigned) [Compound 310, N-{2-[(4R)-3,3-difluoro-4-(methylamino)piperidin-1-yl]pyrimidin-4-yl}-8-[(2R,3S)-3-(methanesulfonylmethyl)-2-methylazetidin-1-yl]-5-(propan-2-yl)isoquinolin-3-amine or N-{2-[(4S)-3,3-difluoro-4(methylamino)piperidin-1-yl]pyrimidin-4-yl}-8-[(2R,3S)-3-(methanesulfonylmethyl)-2-methylazetidin-1-yl]-5-(propan-2-yl)isoquinolin-3-amine]
